Tests used:
Nucleic Acid = assay: Concentrations of compound at which 50% Form I DNA was converted into Form II DNA of Phi X 174; assay type: functional
HeLa [1] = assay: Cytotoxicity of compound against HeLa S3 cells without photoirradiation; assay type: functional, cell-based; settings: Homo sapiens, light or radiation study
HeLa [2] = assay: Cytotoxicity of compound against HeLa S3 cells exposed to compound for 72 hr with 1 hr photoirradiation; settings: Homo sapiens, light or radiation study

SMILES	CC50 (Nucleic Acid) [µM]	IC50 (HeLa [1]) [µM]	IC50 (HeLa [2]) [µM]
CC1O[C@H](OC2C(O)C[C@@H](OCCOC(=O)c3cnc4ccccc4n3)OC2C)CC(N)C1O (some centres undefined)	160		
CC1O[C@H](OC2C(O)C[C@H](OCCOC(=O)c3cnc4ccccc4n3)OC2C)CC(N)C1O (some centres undefined)	43	> 100	6
